From patent publication US11529319B2, “Methods and compositions for treating neurological conditions” (priority 2017, dated 2022)
Entries after “also recorded” stand apart in the source; their conditions may differ.

System: Mef2c-het mice
Assay: Immunohistochemistry and stereological cell counting in hippocampus after chronic treatment
Format: in vivo, mouse
Text: Mef2c heterozygous knockout (Mef2c-het) mice were created by crossing mice carrying the conventional exon 2-deleted allele of Mef2c (Mef2c^Δ2) with their WT littermates. All procedures for maintaining and using these mice were approved by the Institutional Animal Care and Use Committee (IACUC) at the Sanford Burnham Prebys Medical Discovery Institute. In this study, only male mice were used for the behavioral assays to insure uniformity (either with or without drug treatment). Chronic treatment with memantine, NitroSynapsin (both at 4.6 μmol/kg body weight) or vehicle (PBS) was administered via i.p. injection, twice a day for at least 3 months, starting at ˜2.5 weeks of age. This age was chosen because mice are still juveniles and thus treatment could begin in human at an equivalent stage.
Mice were perfused with PBS buffer and then 2% paraformaldehyde in PBS (PFA).
After perfusion, brains were removed and placed into 2% PFA overnight for post-fixation and then sunk in 30% sucrose in PBS prior to freezing. Cryostat sections were cut at a thickness of 15 μm. Sections were soaked in Antigen Unmasking Solution (Vector) and microwaved for 30 s, followed by permeabilization with 0.25% Triton X-100 in PBS for 15 min. Primary antibodies were incubated for 16 h at 4° C. and fluorescence-conjugated secondary antibodies for 2 h at 25° C. Numerous unstained cells in each field served as an internal control for staining specificity. Primary antibodies included: NeuN (mouse, EMD Millipore), activated caspase-3 (rabbit, Cell Signaling), VGLUT1 (guinea pig, SYSY), VGLUT2 (rabbit, SYSY), VGAT (mouse, SYSY), synaptophysin (mouse, Sigma), GFAP (mouse, Sigma), PCNA (mouse, Santa Cruz), DCX (goat, Santa Cruz). TUNEL assay was performed to assess apoptosis using the Roche In Situ Cell Death Detection Kit per vender's instruction. The number of cells positive or percent area occupied by NeuN, activated caspase-3, TUNEL, GFAP, PCNA, or DCX was counted in specific brain regions using an optical dissector, or estimated by quantitative confocal immunohistochemistry or optical density, as described previously.

SMILES: CCC12CC3(N)CC(CC)(C1)CC(O[N+](=O)[O-])(C3)C2 [NitroSynapsin]
- PV-immunoreactive synapses (% area): significantly increased; also recorded: significantly ameliorated
- TUNEL-positive neurons, hippocampal CA3: reduced back to normal; also recorded: ameliorated in Het/N mice
- VGAT immunoreactivity in hippocampus: normalized; also recorded: rescue
- VGLUT1 immunoreactivity in hippocampus: unaltered
- VGLUT2 immunoreactivity in hippocampus: normalized; also recorded: rescue
- activated caspase-3-positive neurons, hippocampal CA3: reduced back to normal; also recorded: ameliorated in Het/N mice
- number of GFAP+ cells (astrocytes) in hippocampus: normalized the number of GFAP+ cells; also recorded: restored to WT levels
- ratio of VGLUT1/VGAT: normalized; also recorded: rescue
- ratio of VGLUT2/VGAT: normalized; also recorded: rescue
- total number of NeuN+ cells in hippocampus (optical dissector): significantly greater than in Het/V mice; also recorded: significantly greater effect of NitroSynapsin over memantine; also recorded: significantly greater than in vehicle (V)-treated mice; also recorded: rescue
